Laboratory results published in patent US20250313574A1, “SIALIC ACID DERIVATIVES AND METHODS OF USING SAME” (EISAI R&D MANAGEMENT CO., LTD., priority 2022, published 2025).

What was measured:
[1] = biological target: Recombinant human CD33 protein (Homo sapiens (Human), UniProt P20138); experiment: CD33 competitive binding assay for HTS drug screen (fluorescent multivalent sialic acid probe)
Method in brief: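 Recombinant human CD33, coated overnight at 4° C from 10 μg/ml in pH 5.5 acetate, was preincubated briefly with compound. It was then exposed to a multivalent neutravidin/FITC/sialic acid analog A-375 probe (final 5 μM neutravidin, 15 μM A-375, 5 μM FITC) for 30 min at room temperature. After washing, bound FITC fluorescence was read.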

[2] = biological target: Recombinant Human Siglec-3/CD33 protein (His-CD33) (Homo sapiens (Human), UniProt P20138); experiment: Differential scanning fluorimetry (DSF) thermal shift assay; type: binding
Protocol: In the DSF assay, as the temperature increases, the protein gets gradually unfolded, exposing hydrophobic regions in which a fluorescent dye binds causing the fluorescence signal to increase. The midpoint of the unfolding transitions is called the thermal melt (Tm) or denaturation temperature and the Tm was defined as the peak apex in the derivative curve. Here, the Tm temperature of CD33 in the presence and absence of A-001 at a concentration of 50 μM was examined.
Recombinant Human Siglec-3/CD33 protein was purchased from Acros (catalog no. CD3-H5226) and reagents used in this study are shown in the Table 1 below.
Lyophilized CD33 protein was received in 1 mg aliquots from Acros. The protein was diluted with 2.5 mL of sterile water to a concentration of 400 μg/mL (14.5 μM), aliquoted into 138 μL aliquots and stored as at −20° C. On the day of analysis, the protein was thawed and […] solution was diluted to […] using buffer containing 133 mM NaCl, 133 mM phosphate buffered solution and 13.9× Sypro Orange dye in water in a quantity to cover the amount of samples tested on the day of the analysis.
200 μM stock solutions of A-001 containing 0.2% DMSO in water was supplied by compound management in a 384-well plate format.
Sample matrix were prepared by adding 7.5 μL of the protein buffer stock solution followed by addition of 2.5 μL of the 200 μM compound solutions in 384-well PCR plates to give a final volume of 10 μL per well consisting of 0.5 μM CD33 protein, 100 mM phosphate buffered solution pH 7.4, 100 mM NaCl, 10× SYPRO orange dye and 50 μM compound concentration (final DMSO concentration ˜0.2%). Using the Applied Biosystems® Protein Thermal Shift software (algorithm version 1.3.), the denaturation temperature or thermal melt (Tm) of the unbound and ligand bound CD33 protein was automatically assigned and the difference in thermal melt (ΔTm D) was calculated using the derivative curve by the Protein Thermal Shift software.
Recombinant human CD33 protein (0.5 μM) was incubated under buffered conditions in the presence of SYPRO orange dye, a temperature gradient was applied and a thermogram was produced by monitoring the fluorescence. The Tm was defined as the peak apex in the derivative curve in the study. […] Addition of […] of A-001 (Blue lines) to the CD33 protein induced significant Tm increases (ΔTm D) of 12.2±0.7° C.

[3] = difference in thermal melt of CD33 protein (0.5 μM) with 50 μM compound
[4] = thermal melt shift of 0.5 μM CD33 protein with 50 μM compound

Recombinant Human Siglec-3/CD33 protein (His-CD33), sequence (P20138 18-259): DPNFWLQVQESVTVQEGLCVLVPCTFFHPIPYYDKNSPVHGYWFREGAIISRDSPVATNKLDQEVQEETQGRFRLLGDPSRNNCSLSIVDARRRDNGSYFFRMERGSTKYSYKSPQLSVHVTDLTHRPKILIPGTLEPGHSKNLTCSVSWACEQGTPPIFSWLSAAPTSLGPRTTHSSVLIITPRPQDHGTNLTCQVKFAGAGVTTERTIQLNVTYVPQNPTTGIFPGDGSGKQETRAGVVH
Recombinant human CD33 protein, sequence (P20138 18-259): as above

SMILES | EC50 [1] [nM] | DSF (dTmD) [2, 3] [°C] | DSF (dTmD) [2, 4]
CC(=O)N[C@H]1[C@H]([C@H](O)[C@H](O)CNC(=O)c2cc(C)c(O)c(C)c2)O[C@@](CCN2CCOC[C@@]23CCN(C(=O)OC(C)(C)C)C3)(C(=O)O)C[C@]1(C)O [A-200] | 131 | 8.7 | 
CC(=O)N[C@H]1[C@H]([C@H](O)[C@H](O)CNC(=O)c2cc(C)c3[nH]c(CO)cc3c2)O[C@@](CCN2CCOC[C@@]23CCN(C(=O)OC(C)(C)C)C3)(C(=O)O)C[C@@H]1O [A-134] | 14 |  | 15.8
CC(=O)N[C@H]1[C@H]([C@H](O)[C@H](O)CNC(=O)c2cc(C)c(O)c(C)c2)O[C@@](CCN2CCNC[C@@]23CCN(C(=O)OC(C)(C)C)C3)(C(=O)O)C[C@@H]1O [A-012] | 22 |  | 12.6
CC(=O)N[C@H]1[C@H]([C@H](O)[C@H](O)CNC(=O)c2ccc(C(F)(F)F)c(C(F)(F)F)c2)O[C@@](CCN2CCOC[C@@]23CCN(C(=O)OC(C)(C)C)C3)(C(=O)O)C[C@@H]1O [A-167] | 3340 |  | 7.9
CC(=O)N[C@H]1[C@H]([C@H](O)[C@H](O)CNC(=O)c2cc(C)c(O)c(C)c2)O[C@@](CCN2CCOC[C@@]23CCN(C(=O)C2(c4ccccc4)CC2)C3)(C(=O)O)C[C@@H]1O [A-098] | 685 |  | 6.9
COc1cc(C(=O)NCc2cccc(/C=C/C[C@]3(C(=O)O)C[C@H](O)[C@@H](NC(=O)Cn4cc(C5CCCCC5)nn4)[C@H]([C@H](O)[C@H](O)CNC(=O)c4cc(C)c(O)c(C)c4)O3)c2)ccc1O [A-279] | 10400 | 4.5 | 
CC(=O)N[C@H]1[C@H]([C@H](O)[C@H](O)CNC(=O)c2cc(C)c(O)c(C)c2)O[C@@](CCN2CCN(C(C)=O)C[C@]23CCN(C(=O)OC(C)(C)C)C3)(C(=O)O)C[C@@H]1O [A-015] | 3340 |  | 3.8
CC(=O)N[C@H]1[C@H]([C@H](O)[C@H](O)CNC(=O)c2cccc(Cl)c2)O[C@@](CCN2CCOC[C@@]23CCN(C(=O)OC(C)(C)C)C3)(C(=O)O)C[C@@H]1O [A-182] | 73 |  | 11.7
CC(=O)N[C@H]1[C@H]([C@H](O)[C@H](O)CNC(=O)c2cc(C)c(O)c(C)c2)O[C@@](CCN2CCOC[C@@]23CCN(C(=O)C2CC2)C3)(C(=O)O)C[C@@H]1O [A-096] | 454 |  | 7.6
CC(=O)N[C@H]1[C@H]([C@H](O)[C@H](O)CNC(=O)c2ccc3c(cnn3C)c2)O[C@@](CCN2CCOC[C@@]23CCN(C(=O)OC(C)(C)C)C3)(C(=O)O)C[C@@H]1O [A-124] | 28 |  | 13.4
CC(=O)N[C@H]1[C@H]([C@H](O)[C@H](O)CNC(=O)c2cnc(O)c(C)c2)O[C@@](CCN2CCOC[C@@]23CCN(C(=O)OC(C)(C)C)C3)(C(=O)O)C[C@@H]1O [A-189] | 150 |  | 9.8
C=CC[C@]1(NCC[C@]2(C(=O)O)C[C@H](O)[C@@H](NC(C)=O)[C@H]([C@H](O)[C@H](O)CNC(=O)c3cc(C)c(O)c(C)c3)O2)CCN(C(=O)OC(C)(C)C)C1 [A-033] | 1610 |  | 6.1
CC(=O)N[C@H]1[C@H]2O[C@](C(=O)O)(CC/C=C/CO[C@H]3C[C@H](CN3C(=O)C3CCCOC3)OCCOc3c(C)cc(cc3C)C(=O)NC[C@@H](O)[C@H]2O)C[C@@H]1O (some centres unmarked) [A-357] | 66100 | 1.1 | 
CC(=O)N[C@H]1[C@H]([C@H](O)[C@H](O)CNC(=O)c2cc(C)c(F)c(C)c2)O[C@@](CCN2CCOC[C@@]23CCN(C(=O)OC(C)(C)C)C3)(C(=O)O)C[C@@H]1O [A-192] | 47 |  | 12.1
CC(=O)N[C@H]1[C@H]([C@H](O)[C@H](O)CNC(=O)c2cc(C)c(O)c(C)c2)O[C@@](CCN2CC(=O)N(C)C[C@@]23CCN(C(=O)OC(C)(C)C)C3)(C(=O)O)C[C@@H]1O [A-016] | 34 |  | 9.7

The remaining compounds from weak to strong by EC50 [1], led by results:

EC50 [1] [nM] | DSF (dTmD) [2, 3] [°C] | DSF (dTmD) [2, 4] | SMILES
35400 | 1.3 |  | CC(=O)N[C@H]1[C@H]2O[C@](C(=O)O)(C/C=C/CCC[C@@H](NC(=O)[C@H]3CCCOC3)c3cccc(c3)COc3c(C)cc(cc3C)C(=O)NC[C@@H](O)[C@H]2O)C[C@@H]1O [A-355]
19000 | 3.6 |  | CC(=O)N[C@H]1[C@H]2O[C@](C(=O)O)(C/C=C/c3cccc(c3)[C@@H](NC(=O)C3CCCOC3)CCCCc3cc(cc(Cl)c3O)C(=O)NC[C@@H](O)[C@H]2O)C[C@@H]1O (some centres unmarked) [A-353]
9430 | 3.5 |  | Cc1cc2cc(C)c1OCCO[C@@H]1C[C@H](OC/C=C/CC[C@]3(C(=O)O)C[C@H](O)[C@@H](NC(=O)Cn4cc(C5CCCCC5)nn4)[C@@H](O3)[C@H](O)[C@H](O)CNC2=O)N(C(=O)C2CCCOC2)C1 (some centres unmarked) [A-358]
6640 | 4.0 |  | CC(=O)N[C@H]1[C@H]([C@H](O)[C@H](O)CNC(=O)c2cc(C)c(O)c(C)c2)O[C@@](C/C=C/c2cccc(C3CCCN3C(=O)OC(C)(C)C)c2)(C(=O)O)C[C@@H]1O (some centres unmarked) [A-295]
6610 | 3.2 |  | CNC(=O)c1cccc(COC(=O)NCC(=O)NC2CCCCC2O[C@]2(C(=O)O)C[C@H](O)[C@@H](NC(=O)Cn3cc(C4CCCCC4)nn3)[C@H]([C@H](O)[C@H](O)CNC(=O)c3cc(C)c(O)c(C)c3)O2)c1 (some centres unmarked) [A-327]
2920 | 6.2 |  | Cc1cc(C(=O)NC[C@@H](O)[C@@H](O)[C@@H]2O[C@@](C/C=C/c3cccc(CNC(=O)c4scnc4C)c3)(C(=O)O)C[C@H](O)[C@H]2NC(=O)Cn2cc(C3CCCCC3)nn2)cc(C)c1O [A-276]
1740 | 8.8 |  | Cc1cc(C(=O)NC[C@@H](O)[C@@H](O)[C@@H]2O[C@@](C/C=C/c3cccc(CNC(=O)c4ccc5[nH]ccc5c4)c3)(C(=O)O)C[C@H](O)[C@H]2NC(=O)Cn2cc(C3CCCCC3)nn2)cc(C)c1O [A-278]
1600 | 5.9 |  | CC(=O)N[C@H]1[C@H]([C@H](O)[C@H](O)CNC(=O)c2cc(C)c(O)c(C)c2)O[C@@](C/C=C/c2cccc(CNC(=O)c3ccc(NC(C)(C)C)cc3)c2)(C(=O)O)C[C@@H]1O [A-257]
920 | 6.5 |  | CC(=O)N[C@H]1[C@H]([C@H](O)[C@H](O)CNC(=O)c2cc(C)c(O)c(C)c2)O[C@@](CC2OC(C)(C)O[C@H]2c2ccc(F)c(N3CCCC3=O)c2)(C(=O)O)C[C@@H]1O (some centres unmarked) [A-317]
255 | 5.4 |  | CC(=O)N[C@H]1[C@H]([C@H](O)[C@H](O)CNC(=O)c2cc(C)c(O)c(C)c2)O[C@@](C/C=C/c2cccc(CNC(=O)c3ccc4[nH]c(C(C)O)nc4c3)c2)(C(=O)O)C[C@@H]1O (some centres unmarked) [A-243]
152 |  | 9.1 | CC(=O)N[C@H]1[C@H]([C@H](O)[C@H](O)CNC(=O)c2cc(C)c(O)c(C)c2)O[C@@](CCN2CCOC[C@@]23CCN(C(=O)NCc2ccccc2)C3)(C(=O)O)C[C@@H]1O [A-079]
119 |  | 10.1 | CC(=O)N[C@H]1[C@H]([C@H](O)[C@H](O)CNC(=O)c2cc(C)cc(C)c2)O[C@@](CCN2CCOC[C@@]23CCN(C(=O)OC(C)(C)C)C3)(C(=O)O)C[C@@H]1O [A-190]
74 | 9.8 |  | COCc1cc2cc(C(=O)NCc3cccc(/C=C/C[C@]4(C(=O)O)C[C@H](O)[C@@H](NC(C)=O)[C@H]([C@H](O)[C@H](O)CNC(=O)c5cc(C)c(O)c(C)c5)O4)c3)ccc2[nH]1 [A-232]
60 |  | 12.1 | COc1c(C)cc(C(=O)NC[C@@H](O)[C@@H](O)[C@@H]2O[C@@](CCN3CCOC[C@@]34CCN(C(=O)OC(C)(C)C)C4)(C(=O)O)C[C@H](O)[C@H]2NC(C)=O)cc1C [A-118]
42 |  | 10.8 | CC(=O)N[C@H]1[C@H]([C@H](O)[C@H](O)CNC(=O)c2cc(C)c(O)c(C)c2)O[C@@](C/C=C/C2(C)CCN(C(=O)OC(C)(C)C)C2)(C(=O)O)C[C@@H]1O (some centres unmarked) [A-195]
22 |  | 12.4 | CC(=O)N[C@H]1[C@H]([C@H](O)[C@H](O)CNC(=O)c2ccc3ncccc3n2)O[C@@](CCN2CCOC[C@@]23CCN(C(=O)OC(C)(C)C)C3)(C(=O)O)C[C@@H]1O [A-114]
